≈ marks a conversion by molar mass, not a printed value. Where two headings read alike, the source gives them in different places.
Assays:
Assay type in all cases: physicochemical
[1] = Solubility of Compound (I) in water and solubilizing vehicles
[2] = Chemical stability in solution
[3] = Precipitation upon dilution of pre-concentrate into saline; settings: pre-concentrated formulation of 40% TWEEN 80 and 60% PEG 400

solubility ([1]; 1.6% TWEEN 80 and 2.4% PEG 400 in water, aqueous with cosolvent or surfactant or cyclodextrin, 1.6% TWEEN 80 and 2.4% PEG 400 in water, read-out: solubility): 1.4 mg/mL (≈ 3.37 mM) | solubility ([1]; 40% TWEEN 80 and 60% PEG 400, organic solvent or mixture, 40% TWEEN 80 and 60% PEG 400, read-out: solubility): > 100 mg/mL | amount of PEG 400 required to achieve 0.3 mg/mL ([1]; PEG 400/water co-solvent system, 0.3 mg/mL needed in infusion media for 15 mg dose): more than 30% | solubility ([1]; about 0.4% TWEEN 80 and about 0.6% PEG 400 in water, aqueous with cosolvent or surfactant or cyclodextrin, about 0.4% TWEEN 80 and about 0.6% PEG 400 in water, read-out: solubility): 0.4 mg/mL (≈ 0.963 mM) | solubility ([1]; oil-in-water emulsion with 20% oil, oil or lipid, oil-in-water emulsion with 20% oil, read-out: solubility): ≤ 5 mg/mL | solubility ([1]; safflower oil, oil or lipid, safflower oil, read-out: solubility in triglycerides): ~25 mg/mL (≈ 60.2 mM) | solubility ([1]; water with 3.6% Captisol, aqueous with cosolvent or surfactant or cyclodextrin, water with 3.6% Captisol, read-out: solubility): 1.1 mg/mL (≈ 2.65 mM) | solubility ([1]; water with 7% hydroxypropyl-β-cyclodextrin, aqueous with cosolvent or surfactant or cyclodextrin, water with 7% hydroxypropyl-β-cyclodextrin, read-out: solubility): 3.2 mg/mL (≈ 7.7 mM) | solubility ([1]; water with 12% Captisol, aqueous with cosolvent or surfactant or cyclodextrin, water with 12% Captisol, read-out: solubility): 3.9 mg/mL (≈ 9.39 mM) | solubility ([1]; water with 14% hydroxypropyl-β-cyclodextrin, aqueous with cosolvent or surfactant or cyclodextrin, water with 14% hydroxypropyl-β-cyclodextrin, read-out: solubility): 7.4 mg/mL (≈ 17.8 mM) | solubility ([1]; water with 28% hydroxypropyl-β-cyclodextrin, aqueous with cosolvent or surfactant or cyclodextrin, water with 28% hydroxypropyl-β-cyclodextrin, read-out: solubility): 18 mg/mL (≈ 43.3 mM) | solubility ([1]; water with 36% Captisol, aqueous with cosolvent or surfactant or cyclodextrin, water with 36% Captisol, read-out: solubility): 13.7 mg/mL (≈ 33 mM) | water solubility ([1]; water, listed as compound of formula (I)): about 0.01 mg/mL | solubility ([1]; water, read-out: water solubility): 0.01 mg/mL (≈ 0.0241 mM) | chemical stability in solution [2]: chemically stable in solution | concentration needed to avoid precipitation upon dilution [3]: ≤ 30000 µg/mL
Structure (SMILES): O=C1c2cc(-c3ccc(OC(F)(F)F)cc3)ccc2OCCN1Cc1ncccn1 [Compound (I), 4-(pyrimidin-2-ylmethyl)-7-(4-(trifluoromethoxy)phenyl)-3,4-dihydrobenzo[f][1,4]oxazepin-5(2H)-one]

Reference: patent publication US20170007617A1, “INTRAVENOUS FORMULATIONS OF A LATE SODIUM CURRENT INHIBITOR” (Gilead Sciences Drive, priority 2015, published 2017)
